Measurements taken from patent US9481915B2, “Method of screening drugs that promote LOXL1 expression” (SHANGHAI TENTH PEOPLE'S HOSPITAL, priority 2012, dated 2016).

Columns and labels:
Format in all cases: cell-based
[1] = tested on: human LOXL1 promoter; assay: PLOXL1-ZsGreen reporter: green fluorescence intensity of human fibroblasts
Description: S3. Drug screening: Inoculate the said human fibroblasts integrating PLOXL1-ZsGreen component into culture medium, incubate overnight. Dissolve the analyte into DMSO as 0.2-2 mg/ml, and dilute into 1:200, then add it into the cell culture medium, and its final concentration will be […]. After incubating overnight (37° C., 5% CO2), detect the green fluorescence intensity of these cells. The screening method of present invention decides if the analyte added stimulates the activity of human LOXL1 promoter effectively, and increases the expression of LOXL1, thus promotes the crosslinking of extracellular matrix protein, by checking if the green fluorescence intensity is increased.
Inoculate the said human fibroblasts integrating PLOXL1-ZsGreen component into culture medium with a density of 20%, keep adherent overnight. […] After culturing overnight (37° C., 5% CO2), detect the green fluorescence intensity of these cells. The present invention decides if the Chinese herbal extracts added stimulate the activity of human LOXL1 promoter effectively by checking if the green fluorescence intensity is increased. […]
Inoculate the said stably expressing human fibroblast strain integrating a expression cassette of PLOXL1-ZsGreen with a 20% density into media, keep adherent overnight (37° C., 5% CO2), detect the green fluorescence intensity of these cells. […]

[2] = tested on: LOXL1; assay: Real-time and western blot of LOXL1 mRNA/protein and elastin dimer in human fibroblast lines HF1 and HF2; conditions: for expression of LOXL1 (mRNA and protein): 4 μM emodin, overnight; for formation of elastin dimer intermediate: different emodin concentrations
Description: Two human fibroblast cell lines integrating PLOXL1-ZsGreen components (HF1 and HF2) are inoculated at a density of 20%, incubated overnight (37° C., 5% CO2). […] After cultured overnight, Real-time and western blot are used to detect the mRNA level and protein level in LOXL1. Wherein, the one added DMSO solvent only works as the control, and is normalized to 1, data are calculated as Mean±SEM of three independent test values, *P<0.05; **P<0.001; ***P<0.0001. […] In these two cell lines, the expression of LOXL1 is not only linearly correlated to transcriptional level, but to LOXL1 protein level, and accomplishing elastin dimer intermediates formation.

[3] = tested on: extracellular matrix crosslinking in human fibroblasts; assay: ELISA of desmosine and hydroxylproline (elastin and collagen crosslinking) in human fibroblast lines HF1 and HF2; conditions: different emodin concentrations
Description: Two human fibroblast cell lines integrating PLOXL1-ZsGreen components (HF1 and HF2) are inoculated at a density of 20%, incubated overnight (37° C., 5% CO2). Then, emodin is added into the culture medium. Detect the desmosine by ELISA method to determine the effects of different emodin concentrations to elastin crosslinking. This example determines the effects of different emodin concentrations to collagen crosslinking by detecting the contents of hydroxylproline through ELISA method. […] Thus, emodin promotes the crosslinking of extracellular matrix protein in human fibroblasts widely.

[4] = tested on: LOXL1 in human skin tissue; assay: Real-time and western blot of LOXL1 and elastin monomer/dimer in cultured human skin tissue
Description: Emodin was added into the culture medium of human skin tissue. Detect the LOXL1 level in human skin tissue and elastin crosslinking level during 1˜3 days after emodin treatment. Detect the mRNA level and protein level of LOXL1 using Real-time and western blot methods, as well as detecting the amount of monomer and dimer of elastin. Wherein, the control with DMSO solvent added only is normalized to 1, data are calculated as Mean±SEM of three independent test values. *p<0.01, ***P<0.0001.

## Cc1cc(O)c2c(c1)C(=O)c1cc(O)cc(O)c1C2=O [emodin]
[1]; Example 4, FIG. 4a, 4 μM emodin
  activity of human LOXL1 promoter (ZsGreen fluorescent intensity): obvious promotion to the activity of human LOXL1 promoter
[1]; Example 4, FIG. 4c, DMSO control normalized to 1
  fluorescent intensity of ZsGreen vs emodin concentration: increases with the concentration of emodin, with a significant linear relationship
[2]; HF1 cell line, FIGS. 5a1-5a2
  expression of LOXL1 (mRNA and protein): significantly promotes the expression of LOXL1
[2]; HF1 cell line, FIG. 5a3
  formation of elastin dimer intermediate: promotion of different emodin concentration to the expression of LOXL1 and the formation of elastin dimer intermediate
[2]; HF2 cell line, FIGS. 5b1-5b2
  expression of LOXL1 (mRNA and protein): significantly promotes the expression of LOXL1
[2]; HF2 cell line, FIG. 5b3
  formation of elastin dimer intermediate: promotion of different emodin concentration to the expression of LOXL1 and the formation of elastin dimer intermediate
[3]; HF1, FIG. 6a1
  desmosine intermediates (elastin crosslinking): increase with the increasing concentrations of emodin added
[3]; HF1, FIG. 6a2
  hydroxylproline intermediate (collagen crosslinking): also increases with the increasing concentrations of emodin added
[3]; HF2, FIG. 6b1
  desmosine intermediates (elastin crosslinking): increase with the increasing concentrations of emodin added
[3]; HF2, FIG. 6b2
  hydroxylproline intermediate (collagen crosslinking): also increases with the increasing concentrations of emodin added
[4]; 4 μM emodin, FIG. 7b
  LOXL1 protein level: significantly promotes the LOXL1 protein level
[4]; 4 μM emodin, FIG. 7c
  elastin intermediate dimers: increase of intermediate dimers
  elastin monomers: decrease of elastin monomers
[4]; different emodin concentrations, 1-3 days, FIG. 7a
  LOXL1 mRNA level: increases as the emodin concentration increases
